Measured values reported in US20150374676A1, “HELICASE-PRIMASE INHIBITORS FOR USE IN A METHOD OF TREATING ALZHEIMER'S DISEASE” (AICURIS GMBH & CO. KG, priority 2013, published 2015).
Where two headings read alike, the source gives them in different places.

Tests used:
[1] = Multiple-dose escalation, steady state pharmacokinetics in healthy volunteers; assay type: in vivo, human; conditions: for Ctrough: free base in plasma; for AUC / Cmax: human, plasma, oral
Description: For three doses of the mono mesylate monohydrate salt of N-[5-(aminosulfonyl)-4-methyl-1,3-thiazol-2-yl]-N-methyl-2-[4-(2-pyridinyl)phenyl]acetamide in formulations in accordance with table a, wherein the particle size distribution is preferably defined by d(0.1) from 2 to 100 μm, d(0.5) from 30 to 210 μm and d(0.9) from 70 to 400 μm with a specific surface area of the particles less than 1.0 m^2/g, and more preferably defined by d(0.1) from 10 to 75 μm, d(0.5) from 100 to 175 μm, d(0.9) from 200 to 350 μm with a specific surface area of the particles less than 0.3 m^2/g, investigated (5, 25, and 100 mg as free base equivalent; once per day oral administration, […]), the individual concentration-time curves of the free base N-[5-(aminosulfonyl)-4-methyl-1,3-thiazol-2-yl]Nmethyl-2-[4-(2-pyridinyl)phenyl]acetamide at day 1 (after the first administration) were very similar in their general shape and slope to those profiles obtained in the single dose escalation trial (see Example a).
At steady state, there was a low inter-individual variability of minimal or “trough” concentrations with CVs (coefficient of variations) between 16.7 and 21.7% (day 21). For all doses, the individual and mean concentration-time curves of the free base of N-[5-(aminosulfonyl)-4-methyl-1,3-thiazol-2-yl]-N-methyl-2-[4-(2-pyridinyl)phenyl]acet-amide at day 21 were very similar in their shape and slope to those profiles obtained at day 1.
Table c: Steady state pharmacokinetic parameters of the free base N-[5-(aminosulfonyl)-4-methyl-1,3-thiazol-2-yl]-N-methyl-2-[4-(2-pyridinyl)phenyl]acetamide at day 21 after daily administrations of 5, 25, or 100 mg as free base equivalent of the mono mesylate monohydrate salt of N-[5-(aminosulfonyl)-4-methyl-1,3-thiazol-2-yl]-N-methyl-2-[4-(2-pyridinyl)phenyl]acetamide in formulations in accordance with table a, wherein the particle size distribution is preferably defined by d(0.1) from 2 to 100 μm, d(0.5) from 30 to 210 μm and d(0.9) from 70 to 400 μm with a specific surface area of the particles less than 1.0 m^2/g, and more preferably defined by d(0.1) from 10 to 75 μm, d(0.5) from 100 to 175 μm, d(0.9) from 200 to 350 μm with a specific surface area of the particles less than 0.3 m^2/g, to healthy volunteers (n=12 per dose).

[2] = fraction unbound in cell culture medium; assay type: in vitro ADME
[3] = fraction unbound in murine plasma; assay type: in vitro ADME; conditions: mouse
[4] = effect of food intake on pharmacokinetics; assay type: in vivo; conditions: human blood plasma
Description: Further, in accordance with the invention the person skilled in the art understands that food intake prior to administration of the crystalline mono mesylate monohydrate salt of N-[5-(aminosulfonyl)-4-methyl-1,3-thiazol-2-yl]-N-methyl-2-[4-(2-pyridinyl)phenyl]-acetamide of a subject may influence positively the in vivo PK/PD profile of the resultant free base of N-[5-(aminosulfonyl)-4-methyl-1,3-thiazol-2-yl]-N-methyl-2-[4-(2-pyridinyl)phenyl]-acetamide. Thus, in accordance with the invention a decreased absorption rate and a delayed tmax of the resultant free base of N-[5-(aminosulfonyl)-4-methyl-1,3-thiazol-2-yl]-N-methyl-2-[4-(2-pyridinyl)phenyl]-acetamide may be expected in […] subjects after administration of crystalline mono mesylate monohydrate salt of N-[5-(aminosulfonyl)-4-methyl-1,3-thiazol-2-yl]-N-methyl-2-[4-(2-pyridinyl)phenyl]-acetamide.

[5] = Multiple-dose escalation, steady state pharmacokinetics in healthy volunteers; assay type: in vivo, human; conditions: steady state after once daily single doses for 21 days
[6] = 5 mg free base equivalent once daily, day 21 steady state, healthy volunteers n=12
[7] = 25 mg free base equivalent once daily, day 21 steady state, healthy volunteers n=12
[8] = 100 mg free base equivalent once daily, day 21 steady state, healthy volunteers n=12

Structure (SMILES): CS(=O)(=O)O.Cc1nc(N(C)C(=O)Cc2ccc(-c3ccccn3)cc2)sc1S(N)(=O)=O [mono mesylate monohydrate salt, N-[5-(aminosulfonyl)-4-methyl-1,3-thiazol-2-yl]-N-methyl-2-[4-(2-pyridinyl)-phenyl]acetamide mono methanesulfonic acid monohydrate]
- Cav [1, 6]: 213 ng/mL
- t1/2z [1, 6]: 82.6 h
- Ctrough [1, 6]: 187 ng/mL
- t1/2z on average ([1]; 25 mg dosage as free base equivalent, steady state after once daily single doses for 21 days): 69 ± 6 h
- Cav [1, 7]: 977 ng/mL
- Cmax,ss [1, 7]: 1358 ng/mL
- t1/2z [1, 7]: 68.6 h
- AUCτ ([1]; 25 mg free base equivalent once daily, day 21 steady state, healthy volunteers n=12, dosing interval 24 hours): 23430 ng·h/mL
- Ctrough [1, 7]: 832 ng/mL
- Cav [1, 8]: 4540 ng/mL
- Cmax,ss [1, 8]: 6358 ng/mL
- t1/2z [1, 8]: 59.8 h
- AUCτ ([1]; 100 mg free base equivalent once daily, day 21 steady state, healthy volunteers n=12, dosing interval 24 hours): 108800 ng·h/mL
- Ctrough [1, 8]: 3743 ng/mL
- t1/2z on average ([1]; 200 mg dosage as free base equivalent, steady state after once daily single doses for 21 days): 57.19 ± 5.451 h
- dose dependence of AUC0-24h and Cmax at day 1 ([1]; 5, 25, 100 mg free base equivalent, after the first administration): dose-proportional increases
- dose dependence of exposure at steady state (Ctrough, AUCτ, Cmax,ss, Cav) ([1]; 5, 25, 100 mg once daily): dose-proportional increase
- accumulation ratio R for AUC and Cmax ([1]; all doses applied (5, 25, 100 mg once daily)): ~5
- apparent total clearance (CL/F) ([1]; all doses investigated (5, 25, 100 mg once daily), steady state): 0.99 to 1.08 L/h
- AUC ([1]; 200 mg, 100 mg dosage as free base equivalent, steady state after once daily single doses for 21 days, read-out: AUCτ,ss): 168000 ± 38000 ng·h/mL
- AUC ([1]; 5 mg free base equivalent once daily, day 21 steady state, healthy volunteers n=12, dosing interval 24 hours, read-out: AUCτ): 5090 ng·h/mL
- Cmax ([1]; 5 mg free base equivalent once daily, day 21 steady state, healthy volunteers n=12, read-out: Cmax,ss): 301 ng/mL
- Cmax ([1]; 100 mg dosage as free base equivalent, steady state after once daily single doses for 21 days, read-out: mean maximum blood plasma concentration at steady state (mean Cmax,ss) of the free base): 6360 ± 1700 ng/mL
- Cmax ([1]; 200 mg dosage as free base equivalent, steady state after once daily single doses for 21 days, read-out: mean maximum blood plasma concentration at steady state (mean Cmax,ss) of the free base): 9990 ± 2610 ng/mL
- fraction unbound [2]: 0.71
- fraction unbound [3]: 0.028
- t1/2z with food intake prior to administration [4]: remains constant
- increase in AUC with food intake prior to administration ([4]; HPLC, worded 'may lead to'): at least 10%
- increase in mean Cmax with food intake prior to administration ([4]; HPLC, worded 'may lead to'): at least 25%
- t1/2z on average ([5]; 100 mg dosage as free base equivalent): 60 ± 4 h
- AUC ([5]; human, plasma, oral, 25 mg dosage as free base equivalent): 23400 ± 3020 ng·h/mL
- Cmax ([5]; human, plasma, oral, 25 mg dosage as free base equivalent, read-out: mean maximum blood plasma concentration at steady state (mean Cmax,ss) of the free base): 1360 ± 167 ng/mL
- AUC ([5]; human, plasma, oral, 100 mg dosage as free base equivalent): 109000 ± 28600 ng·h/mL
